This note sets out measurements from patent US20030131363A1, “Heme-regulated eukaryotic initiation factor 2 alpha kinase knockout mice and methods for use” (Massachusetts Institute of Technology, priority 2001, published 2003).

One series relates to HRI−/− reticulocytes. The series is described as follows: [35S]-methionine incorporation / protein (globin) synthesis in isolated intact reticulocytes, HRI−/−. It counts as cell-based, mouse. The protocol:
(§1) Mice were injected with phenylhydrazine at 40 mg/kg on days 0, 1 and 3 to induce hemolysis, and the subsequent erythropoiesis and release of reticulocytes into the blood stream. Blood samples were collected by heart puncture on day 7 when the reticulocyte counts were 85-95%. Reticulocytes were washed twice with ice-cold phosphate-buffered saline supplemented with 5 mM glucose. For protein synthesis assays, reticulocytes were resuspended in DMEM (2×10^8 cells/ml) with 1/10 concentration of methionine plus 2% dialyzed fetal bovine serum and preincubated for 30 min at 37_C for recovery. […] Incorporation of the [^35S]-methionine in the globin chains and other proteins was analyzed by 15% SDS-PAGE, and subsequent transfer to nitrocellulose membranes. Protein synthesis in reticulocytes was quantitated by scintillation counting of the nitrocellulose strips containing globin chains. Phosphorylation of HRI and eIF2a in isolated reticulocytes were analyzed by western blot analysis following 7.5% and 12% SDS-PAGE respectively. […]
(§2) HRI−/− mice are viable and fertile without gross morphological abnormalities. […] The IF2Alpha kinase activity of HRI in reticulocyte lysates was determined using in vitro protein kinase assays. The extent of the eIF2a phosphorylation was determined by western-blot analysis using antibody specific to the phosphorylated eIF2a. […]

In the next series the test system is HRI +/+ reticulocytes. As to the kind of experiment: [35S]-methionine incorporation / protein (globin) synthesis in isolated intact reticulocytes, HRI +/+. Format: cell-based, mouse. The protocol:
as §1, §2

A further series deals with HRI−/− mice. As to the kind of experiment: Survival in phenylhydrazine-induced hemolysis, HRI−/− mice. The settings on record: iron-deficient HRI−/− mice, after two injections, 50 mg/Kg. On the procedure: (§3) States of iron deficiency have been and remain very common in humans. Thus, exposure to situations that render RBCs more fragile may be often concurrent with iron-deficiency, such as in thalassemias, sickle cell disease, malaria and other infections, extreme climatic conditions, ingestion of natural toxins, heavy metals or drugs. […] Both Wt and HRI−/− mice were injected with phenylhydrazine at the dosages as indicated at Days 0, 1 and 3. The mice were observed daily. […] Six mice of each genotype were used for each dosage. […] The standard phenylhydrazine regime employs three injections of phenylhydrazine on days 0, 1 and 3.

In the next series the test system is Wt mice. As to the kind of experiment: Survival in phenylhydrazine-induced hemolysis, Wt mice. As to conditions: Wt mice with iron-deficiency, after two injections, 50 mg/Kg. The protocol:
as §3

Series [1] addresses T1, endogenous eIF2 of mouse reticulocyte lysates (alpha subunit as substrate), Q6ZWX6.
T1 chain: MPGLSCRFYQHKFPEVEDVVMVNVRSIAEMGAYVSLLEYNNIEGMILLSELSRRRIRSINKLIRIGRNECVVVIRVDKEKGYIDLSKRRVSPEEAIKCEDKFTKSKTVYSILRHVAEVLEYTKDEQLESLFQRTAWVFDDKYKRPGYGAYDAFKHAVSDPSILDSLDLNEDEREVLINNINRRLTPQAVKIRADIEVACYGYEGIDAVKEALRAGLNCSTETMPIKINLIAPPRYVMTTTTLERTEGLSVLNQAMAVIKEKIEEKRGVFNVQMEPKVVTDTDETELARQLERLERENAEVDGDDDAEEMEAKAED

In series [2] the target is purified rabbit reticulocyte eIF-2 (alpha subunit as substrate), P83268.
Chain of purified rabbit reticulocyte eIF-2 (alpha subunit as substrate), P83268 (P83268 whole entry, looked up, tested part not stated): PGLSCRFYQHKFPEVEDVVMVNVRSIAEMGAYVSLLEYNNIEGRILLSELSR
Series [3] addresses purified wheat germ eIF-2Alpha.

Consider `C[C@@H]1C[C@@H]([C@H](O)CC2CC(=O)NC(=O)C2)C(=O)[C@@H](C)C1` [cycloheximide], for which the “Protein synthesis, inhibition” value is reported as “inhibited equally well” in the series with HRI−/− reticulocytes (cycloheximide (2 ìM per method)) and “inhibited equally well” in the series on HRI +/+ reticulocytes (Wt reticulocytes, cycloheximide (2 ìM per method)). `NNc1ccccc1` [phenylhydrazine]: the Mice died in the series on HRI−/− mice is 90%. The molecule further gave a Survival in the series on Wt mice of around 100%.

On to hemin, for which the “Protein synthesis, effect of addition of hemin” value with HRI−/− reticulocytes (hemin added) is “not affected”. Moreover, in the series on HRI +/+ reticulocytes (+/+ reticulocytes, pre-treatment with 40_M hemin for 30 min prior to [35S]-methionine), the “Incorporation of [35S]-methionine into globins” value was 208 % of control.

B1: mouse HRI protein (heme-regulated eIF2 alpha kinase) in reticulocyte lysates (protein)
chain: MLGGSSVDGERDTDDDAAGAVAAPPAIDFPAEVSDPKYDESDVPAELQVLKEPLQQPTFPFLVANQLLLVSLLEHLSHVHEPNPLHSKQVFKLLCQTFIKMGLLSSFTCSDEFSSLRLHHNRAITHLMRSAKERVRQDPCQDNSYMQKIRSREIAFEAQTSRYLNEFEELAILGKGGYGRVYKVRNKLDGQHYAIKKILIKSATKTDCMKVLREVKVLAGLQHPNIVGYHTAWIEHVHVVQPQDRVPIQLPSLEVLSEQEGDRDQGGVKDNESSSSIVFAELTPEKEKPFGESEVKNENNNLVSYTANLVVRNSSESESSIELQEDGLTDLSVRPVVRHQLPLGHSSELEGNFTSTDESSEGNLNLLGQTEVRYHLMLHIQMQLCELSLWDWITERNKRSREYVDEAACPYVMASVATKIFQELVEGVFYIHNMGIVHRDLKPRNIFLHGPDQQVKIGDFGLACADIIQNADWTNRNGKGTRTHTSRVGTCLYASPEQLEGSQYDAKSDMYSLGVILLELFQPFGTEMERATVLTGVRTGRIPESLSKRCPVQAKYIQLLTGRNVSQRPSALQLLQSELFQTTGNVNLTLQMKIIEQEKEIEELKKQLSLLSQDRGLKR
Regarding B1, the “in vitro eIF2 Alpha phosphorylation in reticulocyte lysates with endogenous eIF2 as substrate” value in series [1] is “In vitro eIF2 Alpha phosphorylation occurred in reticulocyte lysates from +/+ mice ... little eIF2 phosphorylation was detected in the reticulocyte lysates of HRI-/- mice”.

B2: 90 kDa polypeptide expressed from rabbit HRI cDNA (heme-regulated eIF-2 alpha kinase), in vitro translation product (protein)
chain: MLGGSAGTRGGEAEGDGAGAVGAVAPPPAIDFPAEVSDPKYDESDVPAELQVLKEPLQQPAFPFAVANQLLLVSLLEHLSHVHEPNPLRSRQVFKLLCQTFIKMGLLSSFTCSDEFSSLRLHHNRAITHLMRSARERVRQDPCADNSHIQKIRSREVALEAQTSRYLNEFEELSILGKGGYGRVYKVRNKLDGQYYAIKKILIKGATKTDCMKVLREVKVLAGLQHPNIVGYHTAWIEHVHVHVQADRVPIQLPSLEVLSDQEEDRDQYGVKNDASSSSSIIFAEFSPEKEKSSDECAVESQNNKLVNYTTNLVVRDTGEFESSTERQENGSIVERQLLFGHNSDVEEDFTSAEESSEEDLSALRHTEVQYHLMLHIQMQLCELSLWDWIAERNRRSRECVDESACPYVMVSVATKIFQELVEGVFYIHNMGIVHRDLKPRNIFLHGPDQQVKIGDFGLACADIIQKNAARTSRNGERAPTHTSRVGTCLYASPEQLEGSEYDAKSDMYSVGVILLELFQPFGTEMERAEVLTGVRAGRIPDSLSKRCPAQAKYVQLLTRRNASQRPSALQLLQSELFQNSAHVNLTLQMKIIEQEREIEELKKQLSLLSQARGVRSDRRDGELPA
Turning to B2, the “eIF-2Alpha kinase activity (32P protein kinase assay, SDS-gel electrophoresis)” value in series [2] was “translational products of HRI 2A and HRI 2B mRNAs have enhanced eIF-2Alpha kinase activity as compared to the control in the absence of added mRNA”.

B3: purified reticulocyte HRI (protein)
chain: B2 chain
In the case of B3, the “phosphorylation of eIF-2Alpha (protein kinase assay)” value in series [3] is recorded as “the purified reticulocyte HRI phosphorylates purified wheat germ eIF-2Alpha very inefficiently”.
